Results on 27 compounds are retold here after patent US9951065B2 (Gilead Sciences, Inc., priority 2015, dated 2018).

Bounds are passed on as bounds.

The target in the first test is T1, IDO1 (Homo sapiens, UniProt P14902).
T1 construct: HeLa cells were treated with a test compound in the presence of IFNγ, which induces IDO1 expression; host or cells: H1-HeLa cells, IDO1 induced with IFNγ
T1 sequence (P14902 whole entry): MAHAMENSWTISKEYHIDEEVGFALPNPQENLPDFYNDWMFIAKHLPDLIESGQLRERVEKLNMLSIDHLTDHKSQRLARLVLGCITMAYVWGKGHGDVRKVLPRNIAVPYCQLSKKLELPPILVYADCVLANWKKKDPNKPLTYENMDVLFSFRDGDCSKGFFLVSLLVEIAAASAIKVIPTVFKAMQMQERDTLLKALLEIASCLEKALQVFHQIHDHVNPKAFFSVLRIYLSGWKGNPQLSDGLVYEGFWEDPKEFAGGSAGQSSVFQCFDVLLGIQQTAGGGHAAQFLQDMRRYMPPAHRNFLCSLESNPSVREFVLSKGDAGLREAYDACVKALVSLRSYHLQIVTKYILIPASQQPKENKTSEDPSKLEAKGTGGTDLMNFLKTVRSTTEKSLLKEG
The experiment in a line: Cell-based (HeLa) assay for measurement of IDO1 inhibition (kynurenine levels in supernatant after IFNγ induction). Particulars: HeLa cells, IFNγ-induced IDO1, kynurenine in supernatant after 48 hour incubation; geometric mean of a minimum of four determinations. As to the method:
Example 509. Cell-Based (HeLa) Assay for Measurement of IDOL Inhibition
To measure IDO1 inhibition in tissue culture, HeLa cells were treated with a test compound in the presence of IFNγ, which induces IDO1 expression. Following incubation, cell supernatants were assayed for kynurenine levels, an indicator of IDO1 activity.
H1-HeLa cells (ATCC #CRL-1958) were seeded in 384-well plates (Greiner #82051-282) at a volume of 50 μL/well in DMEM (Corning #15-018-CM) supplemented with 10% FBS (Corning #35-011-CV) and 1% P/S/G (Corning #30-009-CL) at a density of 1,250 cells/well and incubated overnight at 37° C., 5% CO2/100% humidity. The following day, the test compounds were added in DMSO (0.5% final) at various concentrations, and IDO1 was inducibly expressed by the addition of 50 uL/well of […] of INFγ (Peprotech #300-02) in cell plating media. As a […] control, 50 uL of the cell plating media without IFNγ was added to several wells. Following a 48 hour incubation, the plates were spun down at 1,200 RPM for 5 min at 10° C. 65 μL/well of the supernatant was then transferred to new 384-well plates (Thermo #262160) that contained 10 uL/well of 30% TCA (Sigma #TO699), and the plates were sealed and incubated at 60° C. for 30 min. The plates were then centrifuged for 15 min at 2,000 RPM at 10° C. 40 μL/well of the supernatant was transferred to new 384-well plates (Thermo #262160) and was reacted with 40 μL/well of 2% (w/v) p-dimethlyaminobenzaldehyde (Sigma #156417) in glacial acetic acid (Sigma #A6283). The reaction was incubated at room temperature for 10 min and absorbance at 480 nm was read using a PerkinElmer Envision plate reader.
Data in Table 1 were normalized based on positive (−IFNγ) and negative (+IFNγ) controls and EC50 values were calculated from the fit of the dose response curves to a four-parameter equation. All EC50 values represent geometric mean values of a minimum of four determinations. These assays generally produced results within 2-fold of the reported mean.
Usually EC50 stands for the midpoint of the concentration-response curve. Read a low EC50 as higher potency in that assay. `O/N=C(\Nc1cccc2occc12)c1ccnc2nc[nH]c12` [Example 67, N-(Benzofuran-4-yl)-N′-hydroxy-1H-imidazo[4,5-b]pyridine-7-carboximidamide] had an EC50 of 0.583 µM.
`CN(C)CCCc1nc2c(F)c(F)cc(/C(=N/O)Nc3ccc(F)c(Cl)c3)c2[nH]1` [Example 199, N-(3-Chloro-4-fluorophenyl)-2-[3-(dimethylamino)propyl]-6,7-difluoro-N′-hydroxy-3H-benzimidazole-4-carboximidamide] showed a half-maximal effective concentration (EC50) of 4.49 µM.
Still for that read-out and setting: the result for `O/N=C(\Nc1ccc(F)c(Cl)c1)c1ccnc2nc(Nc3ccccc3)[nH]c12` [Example 155, N-(3-Chloro-4-fluorophenyl)-N′-hydroxy-2-(phenylamino)-1H-imidazo[4,5-b]pyridine-7-carboximidamide] reads 2.15 µM.
With `C#Cc1cc(N/C(=N\O)c2ccnc3nc[nH]c23)ccc1F` [Example 97, N-(3-ethynyl-4-fluorophenyl)-N′-hydroxy-1H-imidazo[4,5-b]pyridine-7-carboximidamide], the EC50 was determined as 0.38 µM. Against the preceding compound, the EC50 is about 5.7-fold lower.
The same measure, in the same setting: the result for `O/N=C(\Nc1ccc(F)c(Cl)c1)c1ccnc2nc(CCN3CCC(O)CC3)[nH]c12` [Example 262, N-(3-chloro-4-fluorophenyl)-N′-hydroxy-2-(2-(4-hydroxypiperidin-1-yl)ethyl)-1H-imidazo[4,5-b]pyridine-7-carboximidamide] reads 3.24 µM; that for `CN(CCc1nc2nccc(/C(=N/O)Nc3ccc(F)c(Cl)c3)c2[nH]1)CC(F)F` [Example 187, N-(3-Chloro-4-fluorophenyl)-2-(2-((2,2-difluoroethyl)(methyl)amino)ethyl)-N′-hydroxy-1H-imidazo[4,5-b]pyridine-7-carboximidamide], 3.4 µM; that for `Nc1nc2c(F)ccc(/C(=N/O)Nc3ccc(F)c(Cl)c3)c2[nH]1` [Example 22, 2-Amino-N-(3-chloro-4-fluorophenyl)-4-fluoro-N′-hydroxy-1H-benzo[d]imidazole-7-carboximidamide], 0.382 µM.
Same read-out and setting: in the case of `CCN(CC)CCc1nc2c(F)c(F)cc(/C(=N/O)Nc3ccc(F)c(Cl)c3)c2[nH]1` [Example 58, N-(3-Chloro-4-fluorophenyl)-2-(2-(diethylamino)ethyl)-4,5-difluoro-N′-hydroxy-1H-benzo[d]imidazole-7-carboximidamide] it was 0.786 µM.
In turn, `CNCc1nc2c(/C(=N/O)Nc3ccc(F)c(Cl)c3)cc(F)c(F)c2[nH]1` [Example 48, N-(3-Chloro-4-fluorophenyl)-4,5-difluoro-N′-hydroxy-2-((methylamino)methyl)-1H-benzo[d]imidazole-7-carboximidamide] returned an EC50 of 0.434 µM.
`O/N=C(\Nc1ccc(Cl)c(Cl)c1)c1ccnc2nc[nH]c12` [Example 86, N-(3,4-Dichlorophenyl)-N′-hydroxy-1H-imidazo[4,5-b]pyridine-7-carboximidamide] came in with a half-maximal effective concentration (EC50) of 0.639 µM.
`O/N=C(\Nc1cc(Br)c(F)cc1F)c1ccnc2nc[nH]c12` [Example 61, N-(5-Bromo-2,4-difluorophenyl)-N′-hydroxy-1H-imidazo[4,5-b]pyridine-7-carboximidamide]: the EC50 was 0.371 µM. This EC50 is about 1.7-fold lower than that of the compound before.
`O/N=C(\Nc1cc(F)cc(Br)c1)c1ccnc2nc[nH]c12` [Example 72, N-(3-Bromo-5-fluorophenyl)-N′-hydroxy-1H-imidazo[4,5-b]pyridine-7-carboximidamide]: the EC50 stood at 0.28 µM.
Turning to `O/N=C(\Nc1ccc(F)c(Cl)c1)c1ccnc2nc(CNCc3ccncc3)[nH]c12` [Example 133, N-(3-Chloro-4-fluorophenyl)-N′-hydroxy-2-(((pyridin-4-ylmethyl)amino)methyl)-1H-imidazo[4,5-b]pyridine-7-carboximidamide], it took 3.71 µM to reach a half-maximal effect (EC50).
Same read-out and setting: the result for `CNCc1nc2nccc(/C(=N/O)Nc3ccc(F)c(Cl)c3)c2[nH]1` [Example 178, N-(3-Chloro-4-fluorophenyl)-N′-hydroxy-2-((methylamino)methyl)-1H-imidazo[4,5-b]pyridine-7-carboximidamide] reads 1.48 µM; that for `O/N=C(\Nc1ccc(F)c(Cl)c1)c1ccnc2nc(CNCc3cccnc3)[nH]c12` [Example 126, N-(3-Chloro-4-fluorophenyl)-N′-hydroxy-2-(((pyridin-3-ylmethyl)amino)methyl)-1H-imidazo[4,5-b]pyridine-7-carboximidamide], 2.28 µM.
The same measure, in the same setting: in the case of `O/N=C(\Nc1ccc(F)c(Cl)c1)c1cc(F)c(F)c2nc(NCCN3CCCC3)[nH]c12` [Example 41, N-(3-Chloro-4-fluorophenyl)-4,5-difluoro-N′-hydroxy-2-((2-(pyrrolidin-1-yl)ethyl)amino)-1H-benzo[d]imidazole-7-carboximidamide] it was 0.24 µM; in that of `CCNCc1nc2c(/C(=N/O)Nc3ccc(F)c(Cl)c3)cc(F)c(F)c2[nH]1` [Example 50, N-(3-Chloro-4-fluorophenyl)-2-((ethylamino)methyl)-6,7-difluoro-N′-hydroxy-1H-benzo[d]imidazole-4-carboximidamide], 0.457 µM; in that of `O/N=C(\Nc1ccc(F)c(Cl)c1)c1ccnc2nc(CCN3CC4CCCC(C4)C3)[nH]c12` [Example 276, 2-(2-(3-azabicyclo[3.3.1]nonan-3-yl)ethyl)-N-(3-chloro-4-fluorophenyl)-N′-hydroxy-1H-imidazo[4,5-b]pyridine-7-carboximidamide], 0.618 µM.
As for `CC(C)(O)CNc1nc2c(F)c(F)cc(/C(=N/O)Nc3ccc(F)c(Cl)c3)c2[nH]1` [Example 292, N-(3-chloro-4-fluorophenyl)-4,5-difluoro-N′-hydroxy-2-((2-hydroxy-2-methylpropyl)amino)-1H-benzo[d]imidazole-7-carboximidamide], the response was half-maximal at 3.32 µM (EC50).
In turn, `O/N=C(\Nc1ccc(F)c(Cl)c1)c1cc(F)c(F)c2nc(NCCCNc3ccccn3)[nH]c12` [Example 297, N-(3-chloro-4-fluorophenyl)-4,5-difluoro-N′-hydroxy-2-((3-(pyridin-2-ylamino)propyl)amino)-1H-benzo[d]imidazole-7-carboximidamide] displayed an EC50 of 1.15 µM.

Staying with this test, now noted: HeLa cells, IFNγ-induced IDO1, kynurenine in supernatant, 48 hour incubation; geometric mean of a minimum of four determinations.
Turning to `O=S(=O)(NCCNc1nc2c(F)c(F)cc(/C(=N/O)Nc3ccc(F)c(Cl)c3)c2[nH]1)c1ccccc1` [Example 339, N-(3-chloro-4-fluorophenyl)-4,5-difluoro-N′-hydroxy-2-((2-(phenylsulfonamido)ethyl)amino)-1H-benzo[d]imidazole-7-carboximidamide], the EC50 is greater than 10 µM.
The same measure, in the same setting: the result for `CN1Cc2ccccc2C(Nc2nc3c(F)c(F)cc(/C(=N/O)Nc4ccc(F)c(Cl)c4)c3[nH]2)C1` (stereo not drawn) [Example 475, N-(3-chloro-4-fluorophenyl)-4,5-difluoro-N′-hydroxy-2-((2-methyl-1,2,3,4-tetrahydroisoquinolin-4-yl)amino)-1H-benzo[d]imidazole-7-carboximidamide] reads 1.99 µM; that for `CN1CCOC(CNc2nc3c(F)c(F)cc(/C(=N/O)Nc4ccc(F)c(Cl)c4)c3[nH]2)C1` (stereo not drawn) [Example 356, N-(3-chloro-4-fluorophenyl)-4,5-difluoro-N′-hydroxy-2-(((4-methylmorpholin-2-yl)methyl)amino)-1H-benzo[d]imidazole-7-carboximidamide], 3.26 µM.
The same measure, in the same setting: the result for `CO[C@@H]1CN(C)C[C@H]1Nc1nc2nccc(/C(=N/O)Nc3ccc(F)c(Cl)c3)c2[nH]1` [Example 479, N-(3-chloro-4-fluorophenyl)-N′-hydroxy-2-(((3R,4R)-4-methoxy-1-methylpyrrolidin-3-yl)amino)-1H-imidazo[4,5-b]pyridine-7-carboximidamide] reads 1.07 µM.
As to `CN(CCc1nc2nccc(/C(=N/O)Nc3ccc(F)c(Cl)c3)c2[nH]1)CC1COCCO1` (stereo not drawn) [Example 400, 2-(2-(((1,4-dioxan-2-yl)methyl)(methyl)amino)ethyl)-N-(3-chloro-4-fluorophenyl)-N′-hydroxy-1H-imidazo[4,5-b]pyridine-7-carboximidamide], the midpoint of the response, the EC50, lay at 2.81 µM. This EC50 is about 2.6-fold higher than that of the compound before.
`O/N=C(\Nc1cccc(Cl)c1)c1cc(F)c(F)c2nc(NCCN3CCCC3)[nH]c12` [Example 330, N-(3-chlorophenyl)-4,5-difluoro-N′-hydroxy-2-((2-(pyrrolidin-1-yl)ethyl)amino)-1H-benzo[d]imidazole-7-carboximidamide]: a half-maximal effect (EC50) was put at 0.414 µM.
The same measure, in the same setting: in the case of `CN(C)C(CNc1nc2c(F)c(F)cc(/C(=N/O)Nc3ccc(F)c(Cl)c3)c2[nH]1)c1ccccc1` (stereo not drawn) [Example 436, N-(3-chloro-4-fluorophenyl)-2-((2-(dimethylamino)-2-phenylethyl)amino)-4,5-difluoro-N′-hydroxy-1H-benzo[d]imidazole-7-carboximidamide] it was 2.02 µM.
